Source: patent US20160115188A1, “NOVEL alpha-GALACTOSYL CERAMIDE ANALOGS AND USES THEREOF” (Chang Gung Memorial Hospital, Linkou, priority 2014, published 2016)

Tests used:
[1] = tested on: Human iNKT cells; assay: Cytokine production of human iNKT cells co-cultured with compound-loaded dendritic cells (Luminex); type: cell-based; settings: for IL-2 level induced / IL-4 level induced / GM-CSF level induced / IFN-γ level induced / IL-10 level induced: dendritic cells loaded with 1 μM compound, cultured with iNKT cells for 3 days, mean±SD; for ratio of IL-4/IFN-γ / ratio of IL-10/IFN-γ: human iNKT cells with compound-loaded dendritic cells, Th2 skewing
Method: The immune response elicited by Compounds 1 and 2a-2i in human NKT cells was evaluated using human dendritic cell (DC).
Method: Human iNKT cells were isolated with anti-TCR Vα24 antibody and cultured for 7 days in the presence of IL-2 (1 μg/mL). The dendritic cells were generated from CD14+ cells, sorted from peripheral blood mononuclear cells (PBMC) by incubating PBMC for 7 days with GM-CSF (50 ng/mL) and IL-4 (50 ng/mL). Dendritic cells were loaded with the following: 1 μM of Compound 1 or 1 μM of Compounds 2a-2i, and cultured with iNKT cells for 3 days. The culture supernatants were collected and analyzed for various cytokines production by Luminex. Data were presented as mean±SD and analyzed by one-way ANOVA.
The ratios of IL-4/IFN-γ and IL-10/IFN-γ were used evaluate if the immune response elicited by Compounds 1 and 2a-2i was skewed toward Th2 mediated response.

[2] = tested on: mNK1.2 cells; assay: Induction of IL-2 in mNK1.2 cells cultured with compound-loaded A20-CD1d cells (ELISA); type: cell-based, murine; settings: cultured with mNK1.2 cells, supernatant after 72 hours
Method: The immune response elicited by Compounds 1 and 2a-2i was assessed by the induction of IL-2 in mNK1.2 cells. Compound 1 is illustrated by the following formula: […]
Method: A20-CD 1d cells were loaded with Compound 1 (α-GalCer) and Compounds 2a-2i, and cultured with mNK1.2 cells. Supernatants were collected after 72 hours to determine the production of IL-2 by ELISA.

[3] = Solubility noted during characterisation; type: physicochemical; settings: room temperature; prevented optical rotation measurement
[4] = in words, relative to Compound 1

melting point [°C]	SMILES	IL-2 level induced [1] [pg/mL]	IL-4 level induced [1] [pg/mL]	ratio of IL-4/IFN-γ [1]	ratio of IL-10/IFN-γ [1]	IFN-γ level induced [1] [pg/mL]	further results
–	CCCCCCCCCCCCCCCCCCCCCCCCCC(=O)N[C@@H](CO[C@H]1O[C@H](COCCCCCCCCCCCCC)[C@H](O)[C@H](O)[C@H]1O)[C@H](O)[C@H](O)CCCCCCCCCCCCCC [Compound 2e, (2S,3S,4R)-1-O-(6-O-tridecyl-α-D-galactopyranosyl)-D-ribo-2-hexacosanoylamino-1,3,4-oct-adecantriol]	32.5 ± 1.7	140.4 ± 6.1	0.246±0.053	0.73±0.03	–	–
–	CCCCCCCCCCCCCCCCCCCCCCCC(=O)N[C@@H](COC1OC(CO)C(O)C(O)C1O)[C@H](O)[C@H](O)CCCCC (some centres unmarked) [OCH, reference compound]	–	–	0.25	0.26	–	–
–	CCCCCCCCCCCCCCCCCCCCCCCCCC(=O)N[C@@H](CO[C@H]1O[C@H](COCCCCCC)[C@H](O)[C@H](O)[C@H]1O)[C@H](O)[C@H](O)CCCCCCCCCCCCCC [Compound 2c, (2S,3S,4R)-1-O-(6-O-hexyl-α-D-galactopyranosyl)-D-ribo-2-hexacosanoylamino-1,3,4-octa-decantriol]	–	–	0.044±0.011	0.91±0.26	–	–
–	CCCCCCCCCCCCCCCCCCCCCCCCCC(=O)N[C@@H](CO[C@H]1OC(COS(=O)(=O)[O-])[C@H](O)C(O)C1O)[C@H](O)[C@H](O)CCCCCCCCCCCCCC.[Na+] (stereo partly drawn) [Compound 2h, (2S,3S,4R)-1-O-(6-O-sulfo-α-D-galactopyranosyl)-D-ribo-2-hexacosanoylamino-1,3,4-octadecantriol, sodium salt]	60.3 ± 24.4	113.9 ± 28.4	–	–	2739 ± 14.52	GM-CSF level induced [1]: 2024 ± 108.4 pg/mL
–	CCCCCCCCCCCCCCCCCCCCCCCCCC(=O)N[C@@H](CO[C@H]1O[C@H](COC)[C@H](O)[C@H](O)[C@H]1O)[C@H](O)[C@H](O)CCCCCCCCCCCCCC [Compound 2b, (2S,3S,4R)-1-O-(6-O-methyl-α-D-galactopyranosyl)-D-ribo-2-hexacosanoylamino-1,3,4-octa-decantriol]	–	–	–	–	2286 ± 344.3	levels of cytokines induced compared to Compound 1 [1, 4]: similar; IL-2 level induced [2]: 13.3 ± 1.3 ng/mL
182	CCCCCCCCCCCCCCCCCCCCCCCCCC(=O)N[C@@H](CO[C@H]1OC(COP(=O)(O)O)[C@H](O)C(O)C1O)[C@H](O)[C@H](O)CCCCCCCCCCCCCC (stereo partly drawn) [Compound 2g, (2S,3S,4R)-1-O-(6-O-phospho-α-D-galactopyranosyl)-D-ribo-2-hexacosanoylamino-1,3,4-oc-tadecantriol, phosphoric acid]	–	–	–	–	2704 ± 10.3	GM-CSF level induced [1]: 1350 ± 146.2 pg/mL; IL-10 level induced [1]: 2010 ± 325.1 pg/mL
187 to 188	CCCCCCCCCCCCCCCCCCCCCCCCCC(=O)N[C@@H](CO[C@H]1OC(CN)[C@H](O)C(O)C1O)[C@H](O)[C@H](O)CCCCCCCCCCCCCC (stereo partly drawn) [Compound 2i, (2S,3S,4R)-1-O-(6-amine-α-D-galactopyranosyl)-D-ribo-2-hexacosanoylamino-1,3,4-octadecantriol]	–	–	–	–	2687 ± 89.4	IL-10 level induced [1]: 2001 ± 46.8 pg/mL; level of IFN-γ compared to Compound 1 [1, 4]: comparable level; level of IL-4 compared to Compound 1 [1, 4]: lower level; ratio of IL-4/IFN-γ compared to Compound 1 [1, 4]: lower ratio; solubility [3]: poor solubility
–	CCCCCCCCCCCCCCCCCCCCCCCCCC(=O)N[C@@H](CO[C@H]1O[C@H](COCCCCCCCCCCCC)[C@H](O)[C@H](O)[C@H]1O)[C@H](O)[C@H](O)CCCCCCCCCCCCCC [Compound 2d, (2S,3S,4R)-1-O-(6-O-dodecyl-α-D-galactopyranosyl)-D-ribo-2-hexacosanoylamino-1,3,4-oct-adecantriol]	33.8 ± 0.2	191.5 ± 35.3	0.331±0.074	0.83±0.1	–	–
64 to 66	CCCCCCCCCCCCCCCCCCCCCCCCCC(=O)N(C)[C@@H](CO[C@H]1OC(COC)[C@H](O)[C@H](O)C1O)[C@H](O)[C@H](O)CCCCCCCCCCCCCC (stereo partly drawn) [Compound 2a, (2S,3S,4R)-1-O-(6-O-methyl-α-D-galactopyranosyl)-D-ribo-2-N-methyl-hexacosanoylamino-1,3,4-octadecantriol]	–	–	0.032±0.0009	0.63±0.07	–	–
–	CCCCCCCCCCCCCCCCCCCCCCCCCC(=O)N[C@@H](CO[C@H]1O[C@H](COCCCCCCCCCCCCCCCCCCCC)[C@H](O)[C@H](O)[C@H]1O)[C@H](O)[C@H](O)CCCCCCCCCCCCCC [Compound 2f, (2S,3S,4R)-1-O-(6-O-eicosanyl-α-D-galactopyranosyl)-D-ribo-2-hexacosanoylamino-1,3,4-oc-tadecantriol]	–	–	0.093±0.041	0.69±0.24	–	–
